The source of these data is ChEMBL document CHEMBL4680243, “N-benzyl 4,4-disubstituted piperidines as a potent class of influenza H1N1 virus inhibitors showing a novel mechanism of hemagglutinin fusion peptide interaction” (Eur J Med Chem, 2020).

The nature of data set [1]: Cytotoxicity against MDCK cells assessed as reduction in cell viability measured after 72 hrs by MTS assay. The format is cell-based, Canis lupus familiaris. The following applies: dog.
The test system of data set [2] is Influenza A virus. As to the kind of experiment: Antiviral activity against Influenza A virus (A/PR 8/34 (H1N1)) infected in MDCK cells assessed as reduction in virus-induced cytopathic effect measured after 72 hrs by MTS assay. Type of data set: functional, organism-based. The following applies: A/Puerto Rico/8/1934(H1N1).
In data set [3] the test system is Influenza A virus. As to the kind of experiment: Antiviral activity against Influenza A virus (A/PR 8/34 (H1N1)) infected in MDCK cells assessed as reduction in virus-induced cytopathic effect measured after 72 hrs by microscopic analysis. The format is functional, organism-based. The following applies: A/Puerto Rico/8/1934(H1N1). On the technique in general: Damage to the host cells serves as the signal in cytopathic effect assays.

Data set [4] is described as follows: Cytotoxicity against MDCK cells assessed as change in cell morphology measured after 72 hrs by microscopic analysis. The format is cell-based, Canis lupus familiaris. The conditions noted are these: dog.

As a reminder, the CC50 is the concentration at which the toxic effect on the cells reaches its halfway point. As a reminder, the EC50 is the midpoint of the concentration-response curve. Consider `COC(=O)C[C@H](N)C(=O)N(Cc1ccc(F)cc1)C1(C(=O)NCc2ccccc2)CCN(Cc2ccccc2)CC1`, for which the cytotoxic concentration (CC50) at 72 h in data set [1] was 54 µM. In addition, the EC50 in the data set on Influenza A virus [2] and in the data set on Influenza A virus [3] was < 0.8 µM each time. In addition, in data set [4], the MCC at 72 h amounted to 60 µM.

As for `COC(=O)C[C@H](NC(=O)OC(C)(C)C)C(=O)N(Cc1ccc(C)cc1)C1(C(=O)NCc2ccccc2)CCN(Cc2ccccc2)CC1`, the CC50 at 72 h in data set [1] is > 100 µM. The EC50 with Influenza A virus [2] is > 100 µM; in the data set on Influenza A virus [3] it was 6.9 µM. Moreover, the MCC at 72 h in data set [4] is > 100 µM.

For `COC(=O)C[C@H](NC(=O)OC(C)(C)C)C(=O)N(Cc1ccc(F)cc1)C1(C(=O)NCc2ccccc2)CCN(Cc2cc(F)cc(F)c2)CC1`, in data set [1], the CC50 at 72 h was 84 µM. Moreover, the EC50 in the data set on Influenza A virus [2] and in the data set on Influenza A virus [3] was > 100 µM throughout. The MCC at 72 h in data set [4] was determined as 100 µM.

For the compound `CCC(C)N(C(=O)[C@H](CC(=O)OC)NC(=O)OC(C)(C)C)C1(C(=O)NCc2ccccc2)CCN(Cc2ccccc2)CC1` (some centres undefined), the CC50 at 72 h in data set [1] was 53 µM. Besides, the 50% effective concentration (EC50) with Influenza A virus [2] and with Influenza A virus [3] was > 100 µM each time. For the same compound, the MCC at 72 h in data set [4] was found to be 84 µM.

For the compound `COC(=O)C[C@H](NC(=O)OC(C)(C)C)C(=O)N(Cc1ccc(F)cc1)C1(C(=O)NCc2ccccc2)CCN(Cc2cccc(F)c2)CC1`, in data set [1], the CC50 at 72 h was found to be 73 µM. Also, the EC50 with Influenza A virus [2] and with Influenza A virus [3] was 1.6 µM throughout. Besides, the MCC at 72 h in data set [4] worked out at 84 µM.

In the case of `COC(=O)C[C@H](NC(=O)OCc1ccccc1)C(=O)N(Cc1ccc(F)cc1)C1(C(=O)NCc2ccccc2)CCN(Cc2ccccc2)CC1`, in data set [1], the CC50 at 72 h amounted to 1.9 µM. In addition, the EC50 with Influenza A virus [2] is > 100 µM; in the data set with Influenza A virus [3] it was 2.7 µM. The MCC at 72 h in data set [4] turned out to be 2.6 µM.

For the compound `COC(=O)CCC(=O)N(Cc1ccc(F)cc1)C1(C(=O)NCc2ccccc2)CCN(Cc2ccccc2)CC1`, in data set [1], the CC50 at 72 h is 40 µM. Besides, the EC50 is 24 µM in the data set with Influenza A virus [2] and 25 µM in the data set on Influenza A virus [3]. Moreover, the MCC at 72 h in data set [4] turned out to be 16 µM.

As for `COC(=O)C[C@H](NC(=O)OC(C)(C)C)C(=O)N(C)C1(C(=O)NCc2ccccc2)CCN(Cc2ccccc2)CC1`, the CC50 at 72 h in data set [1] was 25 µM. For the same compound, the figures for the EC50 with Influenza A virus [2] and in the data set on Influenza A virus [3] were > 100 µM and 14 µM, respectively. Also, the MCC at 72 h in data set [4] stood at 20 µM.

With `COC(=O)C[C@H](NC(=O)OC(C)(C)C)C(=O)N(Cc1ccc(F)cc1)C1(C(=O)NCS(=O)(=O)c2ccc(C)cc2)CCN(Cc2ccccc2)CC1`, the CC50 at 72 h in data set [1] is 6.4 µM. The EC50 with Influenza A virus [2] and in the data set on Influenza A virus [3] was > 100 µM throughout. The MCC at 72 h in data set [4] is 4 µM.

As for `CC[C@H](C)[C@H](NC(=O)OC(C)(C)C)C(=O)N(Cc1ccccc1)C1(C(=O)NCc2ccccc2)CCN(Cc2ccccc2)CC1`, the CC50 at 72 h in data set [1] was > 100 µM. Moreover, the EC50 with Influenza A virus [2] and with Influenza A virus [3] was > 100 µM each time. Besides, the MCC at 72 h in data set [4] was > 100 µM.

On to `COC(=O)C[C@H](NC(=O)OC(C)(C)C)C(=O)N(C1CC1)C1(C(=O)NCc2ccccc2)CCN(Cc2ccccc2)CC1`, for which, in data set [1], the CC50 at 72 h was found to be 56 µM. Besides, the EC50 in the data set with Influenza A virus [2] and in the data set with Influenza A virus [3] was > 100 µM throughout. In addition, in data set [4], the MCC at 72 h was found to be 84 µM.

Take `COC(=O)C[C@H](NC(=O)OC(C)(C)C)C(=O)N(CCNc1ccccc1)C1(C(=O)NCc2ccccc2)CCN(Cc2ccccc2)CC1`: the CC50 at 72 h in data set [1] came out at 68 µM. In addition, the EC50 in the data set on Influenza A virus [2] and in the data set on Influenza A virus [3] was > 100 µM each time. Besides, the MCC at 72 h in data set [4] worked out at 14 µM.

Take `COC(=O)C[C@H](NC(=O)OC(C)(C)C)C(=O)N(Cc1ccc(F)cc1)C1(C(=O)NCc2ccccc2)CC[N+](C)(Cc2ccccc2)CC1` (some centres undefined): in data set [1], the CC50 at 72 h stood at 55 µM. Also, the EC50 with Influenza A virus [2] and in the data set on Influenza A virus [3] was > 100 µM throughout. Also, the MCC at 72 h in data set [4] turned out to be 100 µM.

On to `COC(=O)C[C@H](NC(=O)OC(C)(C)C)C(=O)N(Cc1ccc(F)cc1)C1(C(=O)NCc2ccccc2)CCN(C)CC1`, for which the CC50 at 72 h in data set [1] came out at 9.5 µM. The EC50 in the data set with Influenza A virus [2] and with Influenza A virus [3] was 36 µM throughout. For the same compound, the MCC at 72 h in data set [4] was 17 µM.

Take `COC(=O)C[C@H](NC(=O)OC(C)(C)C)C(=O)N(Cc1ccc(C(F)(F)F)cc1)C1(C(=O)NCc2ccccc2)CCN(Cc2ccccc2)CC1`: in data set [1], the CC50 at 72 h stood at 54 µM. Moreover, the EC50 with Influenza A virus [2] and in the data set with Influenza A virus [3] was > 100 µM throughout. Also, the MCC at 72 h in data set [4] stood at 84 µM.

With `COC(=O)C[C@H](NC(=O)OC(C)(C)C)C(=O)N(Cc1ccc(F)cc1)C1(C(=O)NC2CCCCC2)CCN(Cc2ccccc2)CC1`, in data set [1], the CC50 at 72 h is 44 µM. Besides, the EC50 with Influenza A virus [2] and with Influenza A virus [3] was > 100 µM throughout. For the same compound, in data set [4], the MCC at 72 h worked out at 100 µM.

As to `COC(=O)C[C@H](NC(=O)OC(C)(C)C)C(=O)NC1(C(=O)NCc2ccccc2)CCN(Cc2ccccc2)CC1`, in data set [1], the half-maximal cytotoxic concentration (CC50) at 72 h stood at 85 µM. Besides, the EC50 with Influenza A virus [2] and in the data set with Influenza A virus [3] was > 100 µM in each case. The MCC at 72 h in data set [4] was 100 µM.

Turning to `COC(=O)C[C@H](NC(=O)OC(C)(C)C)C(=O)N(Cc1ccc(F)cc1)C1(C(=O)NCc2ccccc2)CCN(c2ccccc2)CC1`, the CC50 at 72 h in data set [1] is 8.2 µM. In addition, the EC50 in the data set on Influenza A virus [2] and in the data set on Influenza A virus [3] was > 100 µM throughout. Further, in data set [4], the MCC at 72 h was 20 µM.

In the case of `COC(=O)C[C@H](NC(=O)OC(C)(C)C)C(=O)N(Cc1ccc(F)cc1)C(C)(C)C(=O)NCc1ccccc1`, in data set [1], the CC50 at 72 h came to 10 µM. The 50% effective concentration (EC50) in the data set with Influenza A virus [2] and with Influenza A virus [3] was > 100 µM in each case. The MCC at 72 h in data set [4] was 20 µM.

Consider `COC(=O)C[C@H](NC(=O)OC(C)(C)C)C(=O)N(Cc1ccc(F)cc1)C1(C(=O)NCc2ccccc2)CCN(CCc2ccccc2)CC1`, for which the CC50 at 72 h in data set [1] was 41 µM. The EC50 with Influenza A virus [2] and in the data set on Influenza A virus [3] was > 100 µM throughout. In addition, the MCC at 72 h in data set [4] amounted to 100 µM.

Consider `COC(=O)C[C@H](NC(=O)OC(C)(C)C)C(=O)N(Cc1ccc(F)cc1)C1(C(=O)NCc2ccccc2)CCNCC1`, for which the CC50 at 72 h in data set [1] was 48 µM. Moreover, the values for the EC50 in the data set on Influenza A virus [2] and with Influenza A virus [3] were > 89 µM and > 73 µM, respectively. Further, the MCC at 72 h in data set [4] was determined as 100 µM.

Regarding `COC(=O)C[C@H](NC(=O)OC(C)(C)C)C(=O)N(Cc1ccc([N+](=O)[O-])cc1)C1(C(=O)NCc2ccccc2)CCN(Cc2ccccc2)CC1`, in data set [1], the CC50 at 72 h was > 100 µM. For the same compound, the values for the EC50 in the data set with Influenza A virus [2] and with Influenza A virus [3] were > 100 µM and 10 µM, respectively. Moreover, in data set [4], the MCC at 72 h came out at 20 µM.

Turning to `COC(=O)C[C@H](NC(=O)OC(C)(C)C)C(=O)N(Cc1ccc(F)c(F)c1)C1(C(=O)NCc2ccccc2)CCN(Cc2ccccc2)CC1`, in data set [1], the CC50 at 72 h was 52 µM. In addition, the EC50 in the data set on Influenza A virus [2] and with Influenza A virus [3] was > 100 µM throughout. Moreover, the MCC at 72 h in data set [4] was 20 µM.

For `COC(=O)C[C@H](NC(=O)OC(C)(C)C)C(=O)N(Cc1ccc(F)cc1)C1(C(=O)NCc2ccccc2)CCN(C2CCCCC2)CC1`, the CC50 at 72 h in data set [1] was found to be 42 µM. Also, the EC50 with Influenza A virus [2] and in the data set on Influenza A virus [3] was > 100 µM in each case. In addition, the MCC at 72 h in data set [4] came to 73 µM.

Regarding `CC(C)(C)OC(=O)N[C@@H](Cc1ccccc1)C(=O)N(Cc1ccc(F)cc1)C1(C(=O)NCc2ccccc2)CCN(Cc2ccccc2)CC1`, in data set [1], the CC50 at 72 h was 56 µM. Besides, the EC50 in the data set on Influenza A virus [2] and in the data set with Influenza A virus [3] was > 100 µM throughout. Besides, the MCC at 72 h in data set [4] was 100 µM.

On to `C[C@H](NC(=O)OC(C)(C)C)C(=O)N(Cc1ccc(F)cc1)C1(C(=O)NCc2ccccc2)CCN(Cc2ccccc2)CC1`, for which the CC50 at 72 h in data set [1] is > 100 µM. For the same compound, the results for the EC50 in the data set on Influenza A virus [2] and in the data set on Influenza A virus [3] were 11 µM and 10 µM, respectively. In addition, the MCC at 72 h in data set [4] was > 100 µM.
